In patent publication US10245240B2, “Treatment of prostate carcinoma” (Pellficure Pharmaceuticals, Inc., priority 2010, dated 2019):

Tested on: PTEN-P2/GFP prostate cancer cells
Experiment: Effect of naphthoquinone analogs on PTEN-P2/GFP cell proliferation (CellTiter96 formazan-based viability assay)
Settings: for IC50 / viability at 1 µM / viability at 2 µM / viability at 3 µM / viability at 4 µM / viability at 5 µM / viability at 7 µM / viability at 10 µM / viability at 25 µM / viability at 50 µM: Mus musculus, 24 h; for % viability: 24 hrs, listed as 2,6-di-tert-butyl-1,4-naphtoquinone
[1] = 1 μM, medium with 10% FBS and DHT
[2] = 2 μM, medium with 10% FBS and DHT
[3] = 3 μM, medium with 10% FBS and DHT
[4] = 4 μM, medium with 10% FBS and DHT
[5] = 5 μM, medium with 10% FBS and DHT
[6] = 7 μM, medium with 10% FBS and DHT
[7] = 10 μM, medium with 10% FBS and DHT
[8] = 25 μM, medium with 10% FBS and DHT
[9] = 50 μM, medium with 10% FBS and DHT

Method: Cell culture: PTEN-P2/GFP are cells that stably express histone H2B-GFP fusion protein.
Cells are grown in DMEM medium containing 10% FBS, 2 mM L-glutamine, 100 U/ml penicillin/100 μg/ml streptomycin, insulin-selenium-transferrin (5 μg/ml insulin), and DHT 10^−8 M final. Androgen withdrawal is achieved by keeping the cells in phenol red-free DMEM medium containing 10% charcoal-treated FBS and the same supplements as in the normal medium except for DHT. Cells are maintained in a humidified incubator at 37° C. and 5% CO2. G418 (100 μg/ml) is added to maintain stable expression of H2B-GFP.
PTEN-P2/GFP prostate cancer cells were plated at a density of 8000 cells/well in 96-well plates (triplicates) in growing medium containing 10% Fetal Bovine Serum and DHT. The next day, increasing concentrations of a naphthoquinone analog (diluted from 10 mM DMSO stock solutions) were incubated for 24 hrs. Cell viability was determined by the formazan-based cytotoxicity assay “CellTiter96Aquaeous nonradioactive proliferation assay” (Promega).

| SMILES | IC50 [µM] | viability at 1 µM [1] [%] | viability at 2 µM [2] [%] | viability at 3 µM [3] [%] | viability at 4 µM [4] [%] | viability at 5 µM [5] [%] | viability at 7 µM [6] [%] | viability at 10 µM [7] [%] | viability at 25 µM [8] [%] | viability at 50 µM [9] [%] | further results |
| --- | --- | --- | --- | --- | --- | --- | --- | --- | --- | --- | --- |
| O=C1C=CC(=O)c2ccccc21 [1,4-naphthoquinone] | 24.1 | 100 | 97 | 93.9 | 90.4 | 90.1 | 88.7 | 83 | 47.3 | 0.1 | – |
| CC(C)(C)C1=CC(=O)c2cc(C(C)(C)C)ccc2C1=O [2,6-di-tert-butyl-1,4-naphthoquinone] | – | 104 | – | – | – | – | – | – | – | – | % viability [2]: 104.5%; % viability [3]: 104.7%; % viability [4]: 103.0%; % viability [5]: 104.0%; % viability [6]: 102.8%; % viability [7]: 102.2%; % viability [8]: 102.9%; % viability [9]: 92.9% |
| COC1=CC(=O)c2ccccc2C1=O [2-methoxy-1,4-naphthoquinone] | 8.95 | 93.1 | 88.4 | 86.9 | 85 | 82.5 | 67.2 | 43.5 | 0.3 | – | – |
| O=C1C(Cl)=C(Cl)C(=O)c2ccccc21 [Dichlon] | 37.8 | – | – | – | – | – | – | – | – | – | viability at 1 µM: 96.5%; viability at 2 µM: 95.6%; viability at 3 µM: 92.3%; viability at 4 µM: 92.2%; viability at 5 µM: 91.8%; viability at 7 µM: 99.3%; viability at 10 µM: 87.1%; viability at 25 µM: 89.2%; viability at 50 µM: 4.9% |
| O=C1C=CC(=O)c2c(O)cccc21 [Juglone] | 5.3 | 90.7 | 85.1 | 80.6 | 80.5 | 58.2 | 2.3 | 1.1 | 2.5 | 5.3 | – |
| CC(C)=CCC1=C(O)C(=O)c2ccccc2C1=O [Lapachol] | > 50 | 106 | 105 | 102 | 103 | 99.8 | 99.7 | 99.6 | 96.2 | 86.1 | – |
| CC1=CC(=O)c2ccccc2C1=O [Menadione, menadione] | 14.5 | 95 | 93.1 | 90.2 | 93.5 | 89.4 | 94 | 77.5 | 2.4 | 2.9 | – |
| O=C1C=CC(=O)c2c(O)ccc(O)c21 [Naphthazarin] | 1.65 | – | – | – | – | – | – | – | – | – | viability at 1 µM: 73.4%; viability at 2 µM: 36.4%; viability at 3 µM: 8.9%; viability at 4 µM: 1.5%; viability at 5 µM: 1.7%; viability at 7 µM: 2.2%; viability at 10 µM: 2.4%; viability at 25 µM: 5.4%; viability at 50 µM: 9.1% |

Further lines, with some results ahead:

| IC50 [µM] | SMILES | viability at 1 µM [1] [%] | viability at 2 µM [2] [%] | viability at 3 µM [3] [%] | viability at 4 µM [4] [%] | viability at 5 µM [5] [%] | viability at 7 µM [6] [%] | viability at 10 µM [7] [%] | viability at 25 µM [8] [%] | viability at 50 µM [9] [%] | further results |
| --- | --- | --- | --- | --- | --- | --- | --- | --- | --- | --- | --- |
| 7.35 | COC1=C(OC)C(=O)c2ccccc2C1=O [DMNQ, 2,3-Dimethoxy-1,4-naphthoquinone] | 95 | 91 | 88.5 | 85.9 | 85.3 | 58.3 | 2.4 | 0.9 | 0.8 | – |
| > 50 | O=C1C(O)=C(C2=C(O)C(=O)c3ccccc3C2=O)C(=O)c2ccccc21 [Lawsone dimer] | 98.3 | 98.6 | 97.4 | 95.1 | 96.8 | 96.1 | 98.6 | 99.4 | 97.9 | – |
| > 50 | O=C1C=C(O)C(=O)c2ccccc21 [Lawsone] | 90.1 | 85.1 | 81.3 | 82.5 | 80.4 | 80.3 | 83.1 | 87 | 96 | – |
| 6.2 | O=C1C(SCCO)=C(SCCO)C(=O)c2ccccc21 [NSC 95397, 2,3-Bis[(2-hydroxyethyl)thio]-1,4-naphthoquinone] | 104 | 101 | 86.6 | 68.4 | 53.8 | 47.1 | 36.3 | 15.1 | 4.8 | – |
